Assay results published in PubChem BioAssay AID434987 (Southern Research Specialized Biocontainment Screening …, 2010).
Activity calls are given as the source filed them. The rule behind the calls is not given here.

Test system: M. tuberculosis H37Rv growth inhibition with meropenem
Assay: dose response, H37Rv, with and without meropenem (AID 434987);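 note: growth over 7 days at 37 °C before Alamar Blue read on day 9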
[1] = M. tuberculosis H37Rv growth inhibition, measured here: IC50 without meropenem
[2] = M. tuberculosis H37Rv growth inhibition, measured here: IC90 without meropenem
[3] = measured here: IC90 with meropenem

Structure (SMILES) | IC50 | IC50 [1] [µM] | IC90 [2] [µM] | IC90 [3] [µM]
O=C1O/C(=C/c2ccccc2)N=C1c1ccccc1 | 1.34 µM | 16.9 | > 100 | 28.3
O=C1c2cccc3c(N4CCCCC4)ccc(c23)C(=O)N1c1ccccn1 | 84.8 µM (inactive) | > 100 | > 100 | > 100
COc1cc2cnc(-c3ccsc3)c(-c3ccc(F)cc3)c2cc1OC | > 100 µM (inactive) | > 100 | > 100 | > 100
COc1cc(OC)cc(-c2c(C#Cc3ccsc3)c3cc(-c4ccc(OC)nc4)ccc3n2C)c1 | > 100 µM (inactive) | > 100 | > 100 | > 100
O=C(/C=C/c1ccc2c(c1)OCO2)Nc1nc2ccccc2s1 | > 100 µM (inactive) | > 100 | > 100 | > 100
COCc1nnc(NC(=O)c2ccc(S(=O)(=O)N(C)c3ccccc3)cc2)o1 | 17.4 µM (inactive) | 40.3 | > 100 | > 100
O=[N+]([O-])c1cc(Cl)cc(/C=N/NC(=S)Nc2cc(S(=O)(=O)N3CCOCC3)ccc2Cl)c1O | 6.3 µM | 18.2 | 30.5 | 29.3
CCOC(=O)c1cnn(-c2ncnc3sc4c(c23)CCC4)c1N | 23.6 µM | > 100 | > 100 | > 50
O=C(CSC1CS(=O)(=O)c2cc([N+](=O)[O-])ccc21)NNC(=O)c1ccccc1 (stereo not given) | 11.8 µM | 89 | 94.3 | 13.3
COc1cc(OC)c(C(=O)Nc2cccc3ccccc23)cc1OC | > 100 µM (inactive) | > 100 | > 100 | > 100
Cc1noc(NS(=O)(=O)c2ccc(N/C=C\C(=O)c3ccc4c(c3)OCO4)cc2)c1C | 34.2 µM | 91.5 | > 100 | 86
CSc1ccc(-c2nnn(CC(=O)NCc3ccccc3)n2)cc1 | 15.8 µM | > 100 | > 100 | > 100
O=c1c(O)c(-c2ccc3c(c2)OCO3)oc2ccccc12 | 2.12 µM | > 100 | > 100 | > 100
O=C(NCc1cccs1)c1cc(-c2ccccc2)nc2ccccc12 | > 100 µM (inactive) | > 100 | > 100 | > 100
O=C(Nc1ccccc1)c1c2c(nc3ccccc13)CCCC2 | 17.1 µM | > 100 | > 100 | > 25
COc1ccccc1NC(=O)COc1ccc(CO)cc1Cl | > 100 µM (inactive) | > 100 | > 100 | > 100
Cc1c(OCc2ccc(C(=O)O)cc2)ccc2c(-c3ccccc3)cc(=O)oc12 | 1.42 µM | 46.2 | 96.7 | 2.09
COc1cc(OC)c2ccc(=O)oc2c1C(CC(=O)N1CCN(c2ccccc2)CC1)c1ccc2c(c1)OCO2 (stereo not given) | 91.1 µM (inactive) | > 100 | > 100 | > 100
Cc1cc(C(=O)CN2C(=O)NC(C)(CC(C)C)C2=O)c(C)n1-c1ccc2c(c1)OCO2 (stereo not given) | 70 µM (inactive) | 74.7 | 99.9 | 96.4
CN(C)c1ccc(/C=N/NC(N)=S)cc1[N+](=O)[O-] | 19.9 µM | > 100 | > 100 | > 50

Structure (SMILES) | IC50 | IC50 [1] [µM] | IC90 [2] [µM] | IC90 [3] [µM]
Cc1ccc(/C=N\NC(=O)c2csnn2)cc1 | 66.4 µM (inactive) | > 100 | > 100 | > 100
COc1ccccc1-c1cc(C(=O)Nc2c(C)n(C)n(-c3ccccc3)c2=O)no1 | 6.68 µM | 39.2 | 88.1 | 19.5
COc1cc(C(F)(F)F)nc2ccc(C#CCOC(=O)Nc3ccccc3)cc12 | > 100 µM (inactive) | > 100 | > 100 | > 100
CN(c1ccc(C(=O)Nc2ccccc2Sc2ccccc2)cc1)S(C)(=O)=O | > 100 µM (inactive) | > 100 | > 100 | > 100
N=C1C(c2nc(-c3ccc(Cl)cc3)cs2)=C(O)CN1CCCN1CCOCC1 | > 100 µM (inactive) | > 100 | > 100 | > 100
O=C(/C=C/c1cc(Br)ccc1F)OCC(=O)N1CCCC1 | > 100 µM (inactive) | > 100 | > 100 | > 100
Cc1cccc2nc(COc3ccc4ccccc4c3Br)cn12 | 49 µM (inactive) | 47.5 | > 100 | > 100
OC(COC(c1ccccc1)c1ccccc1)CN1CCN(c2cccc(Cl)c2)CC1 (stereo not given) | 44.6 µM (inactive) | 47.4 | > 100 | > 100
COc1ccc2nc(NC(=O)NC3CCCCC3)sc2c1 | > 100 µM (inactive) | > 100 | > 100 | > 100
CCC(CC)c1nnc(NC(=O)c2ccc(N3CCCCC3)c([N+](=O)[O-])c2)s1 | 9.31 µM | 75.9 | > 100 | 44
COCCNC(=S)N/N=C(\C)c1cccc(OC)c1 | 17.8 µM | 47.1 | > 100 | > 100
Clc1ccc(Cn2cc(/C=N/n3cnnc3)c3ccccc32)cc1 | 46.9 µM (inactive) | 49 | > 50 | > 100
Cc1ccc(C)c(-n2c(-c3ccco3)n[nH]c2=S)c1 | 14 µM | 48.9 | > 100 | > 100
Cc1cccc(NC(=O)c2cc3ccccc3c(=O)o2)n1 | 37.9 µM | > 100 | > 100 | > 100
Cc1nc(/N=C(\N)NC(=O)c2ccccc2)nc2ccccc12 | – | > 100 | > 100 | > 25
CC1CCN(CCOc2ccc(OCc3ccccc3)cc2)CC1 | 74 µM (inactive) | 98.4 | > 100 | > 100
C=CCn1cc(C(=O)NCCCOC)c(=O)c2cc(S(=O)(=O)N(CC)CC)ccc21 | 99.9 µM (inactive) | > 100 | > 100 | > 100
COc1ccc2[nH]cc(C(=O)CCl)c2c1 | 2.68 µM | 9.54 | 31 | > 100
COc1cccc(CNC(=O)C(Cc2ccccc2)n2cccc2)c1 (stereo not given) | 50.7 µM (inactive) | 67.4 | > 100 | > 100
O=c1[nH]c(=S)[nH]c(O)c1N=Nc1ccc2c(c1)OCCO2 | > 100 µM (inactive) | > 100 | > 100 | > 100

Structure (SMILES) | IC50 | IC50 [1] [µM] | IC90 [2] [µM] | IC90 [3] [µM]
O=C(c1ccccc1)N1CCC(CC2CC(c3cccc(Br)c3)=NO2)(C(=O)NCC2CCCCC2)CC1 (stereo not given) | 46.8 µM (inactive) | > 100 | > 100 | > 100
COc1ccc(NC(=O)C/C(C)=N/NC(=O)c2cnccn2)cc1 | 20.1 µM | > 100 | > 100 | > 100
CCOc1ccc2nc(SC3CC(=O)N(c4cccc(OC)c4)C3=O)sc2c1 (stereo not given) | 23.5 µM (inactive) | 44.2 | 49.9 | 25.7
CCOc1ccc(N(CC(=O)NCCSCc2ccccc2Cl)S(C)(=O)=O)cc1 | > 100 µM (inactive) | > 100 | > 100 | > 100
C/C(CC(=O)Nc1c(C)cc(C)cc1C)=N\NC(=O)c1cnccn1 | 5.21 µM | 28.7 | 58.5 | 17.4
CCO[C@H]1OC(C(=O)NCc2nc3ccccc3[nH]2)=C[C@@H](c2cn(C(C)=O)c3ccccc23)[C@@H]1CCCO | 90.7 µM (inactive) | 80 | > 100 | > 100
CN(C)S(=O)(=O)Oc1ccsc1C(=O)Nc1ccc(C(F)(F)F)cc1 | > 100 µM (inactive) | > 100 | > 100 | > 100
Cc1nnc(SCc2cccc(Cl)c2)n(N)c1=O | 4.43 µM | 12 | 18.1 | 10.1
Cc1cc(C)c(NC(=O)CC(C)(C)C)c(Cl)c1 | 76.4 µM (inactive) | > 100 | > 100 | > 100
COc1ccc2[nH]c3c(c2c1)CCN=C3C | > 100 µM (inactive) | > 100 | > 100 | > 100
CCC(C(=O)NC1C(=O)N2C(C(=O)O)=C(CSc3nnc(C)s3)CSC12)c1ccccc1 (stereo not given) | 0.587 µM | > 100 | > 100 | 1.57
CC(C)(C)NCCCOc1ccc(Cl)cc1C(C)(C)C | 24.8 µM (inactive) | 45.9 | 51.6 | 26.9
CCc1ccc(N2C(=O)c3sc4nnc(-c5ccccc5)c(=O)n4c3C2=O)cc1 | > 100 µM (inactive) | > 100 | > 100 | > 100
COc1ccc(OC)c(-c2cc(C(=O)Nc3c(C)n(C)n(-c4ccccc4)c3=O)no2)c1 | 17.1 µM | 54 | > 100 | 49.5
Cc1cc(N2CCCCCC2)nc(-c2ccccc2O)n1 | 67.2 µM (inactive) | 91.3 | > 100 | > 100
O=C(COC(=O)C1CC1)NCc1ccccc1Cl | 1.37 µM | > 100 | > 100 | > 100
CC(NC(=O)CSc1nc2ccccc2c(=O)[nH]1)c1ccccc1 (stereo not given) | 18.9 µM (inactive) | 23.8 | > 100 | 60.9
COC(=O)C1=C(C)NC(=O)/C1=C\c1cc(C)n(-c2c(C)cccc2C)c1C | 88 µM (inactive) | > 100 | > 100 | 99.8
Cc1ccc(C)c(N2CCN(CC3CCCCC3)CC2)c1 | 37.9 µM | 95.9 | > 100 | 52.4
